Patent US8614333B2, “Acenaphtho heterocyclic compound and application thereof” (Dalian University of Technology, priority 2010, dated 2013)

Legend:
His-tagged Mcl-1 protein = His-tagged Mcl-1 protein (Homo sapiens, UniProt Q07820); assay: ELISA assay, competitive binding to Mcl-1 protein (biotin-Bim/streptavidin plate); conditions: 20 nM His-tagged Mcl-1, method calculates average IC50, read-out: Mcl-1 binding constants
Method: (§1) The present inventors used fluorescence polarization assay to detect the bonding force between the protein and the compounds in a previous study (PCT/CN2010/075521). […] ELISA assay was used to detect the bonding force between the compounds and the protein in this application.
(§2) Biotinylated Bim peptide was diluted to 0.09 μg/mL in SuperBlock blocking buffer in PBS and incubated for 1.5 h in 96-well microtiter plates already coated with streptavidin to allow the formation of the complex between Biotin-Bim and streptavidin. All incubations were performed at room temperature unless otherwise noted. Each inhibitor was first dissolved in pure DMSO to obtain a 10 mM stock solution. For each tested inhibitor, different concentrations of the inhibitor were incubated with 20 nM His-tagged Mcl-1 protein in PBS for 1 h with a final DMSO concentration of 4%. The plates were washed three times with PBS containing 0.05% Tween-20. The inhibitor and protein mixture (100 μL) were transferred to the plate containing the biotin-Bim/streptavidin complex and incubated for 2 h. The plate was then washed as before and mouse anti-His antibody that conjugated with horseradish peroxidase was added into the wells and incubated for 1 h. The plate was then washed with PBS containing 0.05% Tween-20. Finally, TMB was added to each well; the enzymatic reaction was stopped after 30 min by addition of H2SO4 (100 μL, 2M). Absorbances were measured with a TECAN GENios (Swiss, TECAN) microplate reader using a wavelength of 450 nm. Three independent experiments were performed with each inhibitor to calculate average IC50 value and standard deviation (SD).
(§3) The BH3 analogous degrees of other 11 compounds were detected by using the experimental method as described above. The protein binding constant (binding constant in table 1) between them and Bcl-2 and Mcl-1 proteins were also on nM grade.

[1] = tested on: MCF-7 cells transfected with BAX/BAK interfering plasmid; assay: Cytotoxicity by MTT, cells transfected with BAX/BAK interfering plasmid; format: cell-based; conditions: Homo sapiens, MCF7; MCF-7 with BAX/BAK interfering plasmid, MTT, 48 hours
Method: (§4) 3 μg of BAX/BAK interfering plasmid was transfected into MCF-7 cells by using calcium phosphate coprecipitation method, 24 hours later, the cells were collected. The expressions after the BAX and BAK proteins interfered with RNA was detected by Western, and the cell groups without plasmid transfection were treated similarly and were set as the control group. The transfected cells were inoculated in a 96-well plate (1×10^5 cells/well), the control experiment of the cell group without plasmid transfection was carried out in parallel. The compound 1 to be detected was added thereinto according to the concentration gradient designed before the experiment. 48 hours later, the cellular vitality was detected by MTT. The experimental results were shown in FIG. 9, Gossypol as nonspecific BH3 analogue was treated in parallel.
(§5) Other 24 compounds were also detected by the same experimental method as described above, the differences of IC50 values between the transfected cells and the without plasmid transfection cells were compared.

[2] = target: T1, interaction between Bcl-2 and Bax (Homo sapiens, UniProt P10415); assay: Intracellular FRET, Bcl-2-CFP/Bax-YFP in Hela cells; format: cell-based; conditions: for Time (time period after which the interaction between Bcl-2 and Bax was interfered): at the concentration given
T1 construct: expressed in transfected cells; host or cells: Hela cells
T1 sequence (P10415 whole entry): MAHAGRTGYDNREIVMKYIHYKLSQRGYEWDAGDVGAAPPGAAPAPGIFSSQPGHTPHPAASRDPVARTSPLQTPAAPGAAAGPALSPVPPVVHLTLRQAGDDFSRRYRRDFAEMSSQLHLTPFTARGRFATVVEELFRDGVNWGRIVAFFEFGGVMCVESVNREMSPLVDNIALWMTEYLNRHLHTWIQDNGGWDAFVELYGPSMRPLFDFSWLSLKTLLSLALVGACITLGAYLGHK
Method: 2 μg of Bcl-2-CFP and Bax-YFP plasmids were transfected separately or simultaneously into Hela cells by using calcium phosphate coprecipitation method, 24 hours later, the cells were inoculated in a 6-well plate (2×10^5 cells/well), and the compound 1 to be detected dissolved in DMSO was added there into until the final concentration (2, 5, 10 and 15 μM) was achieved. 24 hours later (please refer to FIG. 5); the cells were washed with PBS for three times. The fluorescence value was detected by GENIOS fluorescence enzyme-labelled meter (TECAN, Swiss). In time-dependent experiment, the transfected cells were inoculated in a 6-well plate, after that, 40 μM of the compound was added thereinto. 3, 6 and 24 hours later (FIG. 6), the fluorescence intensities were detected by plate reader. As for the cell group in which only Bcl-2-CFP plasmid was transfected, the values at 475 nm emission wave length and 433 nm excitation wave length were recorded. As for the cell group in which only Bax-YFP plasmid was transfected, the values at 527 nm emission wave length and 505 nm excitation wave length were recorded. As for the cell group in which Bcl-2-CFP and Bax-YFP plasmids were co-transfected, the values at 527 nm and 475 emission wave lengths and 433 nm excitation wave length were recorded. The ratio of fluorescence intensity at 527 nm and 475 nm emission wave lengths was FRET. The FRET for the control group in which the plasmid was solely transfected was set as 1.0. […] In the cotransfected cells, the FRET increased up to 2.0 due to the interaction of Bcl-2 protein and Bax protein, and that the interference to the interaction between the two proteins increased and FRET decreased with the increase of the drug concentration and time. The cellular vitality was detected by MTT method. When the concentration of the compound reached 1 μM, the interaction between Bcl-2 and Bax can be interfered after 2 hours, and the results appeared concentration-time dependent trend.
Wherein the concentration and time meant that the detected compound interfered with the interaction between Bcl-2 and Bax at the concentration for the time period.

Mcl-1 = assay: Western blotting, semiquantitative analysis of Mcl-1 protein bands; format: cell-based; conditions: control = 1, tumor cells
Method: (§6) The interest protein was detected by the corresponding antibody. The expression of the interest protein in the cells was detected by horseradish peroxidase-labeled secondary antibodies in combination with ECL coloration method. […] The concentration of the protein bands in the Western images were carried out semiquantitative analysis and normalization treatment with KODAK Gel Logic 1500 imaging system software.

Bcl-2 protein = Bcl-2 protein (Homo sapiens, UniProt P10415); assay: ELISA assay, competitive binding to Bcl-2 protein (biotin-Bim/streptavidin plate); conditions: method calculates average IC50, read-out: Bcl-2 binding constants
Bcl-2 protein, sequence (P10415 whole entry, species assumed): as the sequence (P10415 whole entry) above
Method: as §1, §2, §3

Bcl-2 = assay: Western blotting, semiquantitative analysis of Bcl-2 protein bands; format: cell-based; conditions: control = 1, tumor cells
Method: as §6

MCF-7 cells = assay: Cytotoxicity by MTT, cells without plasmid transfection; format: cell-based; conditions: Homo sapiens, MCF7; MCF-7, MTT, 48 hours; read-out: IC50 value in untransfected cells
Method: as §4, §5

[3] = tested on: BAX shift towards the chondriosome; assay: Co-localization between Bax protein and chondriosome, Bax-YFP in MCF-7 cells; format: cell-based; conditions: for Doses (concentration at which the compound drove the BAX to shift towards the chondriosome): Bax-YFP/Mito Tracker Red; for Time (time period after which BAX shifted towards the chondriosome): at the concentration given
Method: 5 μg of Bax-YFP plasmid was transfected into MCF-7 cells by using calcium phosphate coprecipitation method, 24 hours later, the cells were inoculated in a 6-well plate (0.2×10^6 cells/well), and 10 μM of the compound 1 to be detected was added thereinto. 6 hours later, the cells were washed with PBS and hatched away from light with 50 nM Mito Tracker Red CMXRos (chondriosome specific probes; red) for 10 minutes. Then the cells were washed with PBS for three times, and the fluorescent image was scanned with Radiance2000 laser confocal microscopy (Bio-Rad, USA). Meanwhile, dual channel scanning was carried out, one channel was used to scan the green fluorescence of Bax-YFP, and the other channel was used to scan the red fluorescence of the CMXRos probe for indicating the chondriosome. […] When the Bax protein was localized on the chondriosome, the green and red fluorescence was superimposed into orange, as shown in FIG. 7.
Other 24 compounds were detected by the same experimental method as described above. […] Wherein the concentration and time meant that the detected compound simulated the BH3-only protein and driven the BAX to shift towards the chondriosome at the concentration for the time period.

His-tagged Mcl-1 protein, sequence (Q07820 whole entry): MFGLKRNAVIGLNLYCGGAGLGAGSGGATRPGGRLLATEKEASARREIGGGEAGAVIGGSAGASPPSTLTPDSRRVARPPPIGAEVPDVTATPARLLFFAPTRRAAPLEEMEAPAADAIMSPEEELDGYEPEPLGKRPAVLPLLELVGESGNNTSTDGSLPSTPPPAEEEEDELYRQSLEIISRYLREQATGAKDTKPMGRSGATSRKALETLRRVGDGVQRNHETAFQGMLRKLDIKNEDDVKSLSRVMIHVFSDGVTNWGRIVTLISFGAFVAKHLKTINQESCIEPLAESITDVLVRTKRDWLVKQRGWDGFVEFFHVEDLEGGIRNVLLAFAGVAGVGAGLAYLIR

Compound	IC50 (His-tagged Mcl-1 protein)	IC50 [1]	Doses (concentration at which the compound interfered with the interaction between Bcl-2 and Bax) [2]	Time (time period after which the interaction between Bcl-2 and Bax was interfered) [2]	melting point	concentration of the protein bands (semiquantitative, normalized), Mcl-1 (Mcl-1; 2 h)	concentration of the protein bands (semiquantitative, normalized), Mcl-1 (Mcl-1; 6 h)	IC50 (Bcl-2 protein)	concentration of the protein bands (semiquantitative, normalized), Bcl-2 (Bcl-2; 6 h)	concentration of the protein bands (semiquantitative, normalized), Bcl-2 (Bcl-2; 12 h)	concentration of the protein bands (semiquantitative, normalized), Bcl-2 (Bcl-2; 18 h)	concentration of the protein bands (semiquantitative, normalized), Bcl-2 (Bcl-2; 24 h)	IC50 (MCF-7 cells)	Doses (concentration at which the compound drove the BAX to shift towards the chondriosome) [3]	Time (time period after which BAX shifted towards the chondriosome) [3]
CCCCNC1=C2C(=NC1=O)c1cccc3c(Sc4ccc(Br)cc4)ccc2c13 [Compound 7, 3-(4-Bromo-phenylsulfanyl)-9-butylamino-acenaphtho[1,2-b]pyrrol-8-one]	14 nM	> 50000 nM	0.3 µM	3 h	245 to 246 °C	0.68	0.32	66 nM	0.99	0.99	0.51	0.20	1200 nM	0.5 µM	3 h
O=C1N=C2C(=C1NCCCc1ccccc1)c1ccc(Sc3ccc(Br)cc3)c3cccc2c13 [Compound 8, 3-(4-Bromo-phenylsulfanyl)-9-(3-phenyl-propylamino)-acenaphtho[1,2-b]pyrrol-8-one]	4 nM	> 50000 nM	0.1 µM	1 h	272 to 273 °C	0.52	0.22	6 nM	0.99	0.99	0.42	0.10	1000 nM	0.1 µM	1 h
CCCCNC1=C2C(=NC1=O)c1cccc3c(N4CCSCC4)ccc2c13 [Compound 9, 9-Butylamino-3-thiomorpholin-4-yl-acenaphtho[1,2-b]pyrrol-8-one]	16 nM	> 50000 nM	0.4 µM	2 h	239 to 240 °C	0.60	0.29	63 nM	0.99	0.99	0.49	0.20	1300 nM	0.6 µM	3 h
O=C1N=C2C(=C1NCCCc1ccccc1)c1ccc(N3CCSCC3)c3cccc2c13 [Compound 10, 9-(3-Phenyl-propylamino)-3-thiomorpholin-4-yl-acenaphtho[1,2-b]pyrrol-8-one]	5 nM	> 50000 nM	0.1 µM	2 h	265 to 266 °C	0.53	0.21	17 nM	0.99	0.99	0.45	0.12	500 nM	0.2 µM	1 h
CCCCNC1=C2C(=NC1=O)c1cccc3c(Oc4ccc(C(C)C)cc4)ccc2c13 [Compound 11, 9-Butylamino-3-(4-isopropyl-phenoxy)-acenaphtho[1,2-b]pyrrol-8-one]	46 nM	> 50000 nM	0.3 µM	2 h	243 to 244 °C	0.70	0.34	112 nM	0.99	0.99	0.57	0.22	4200 nM	0.9 µM	3 h
